Results published in paper PMC5065774 (Bioorganic & medicinal chemistry, 2016).

What was measured:
[1] = tested on: TALL-104 CTL human leukemia cells; test: Cytotoxic T-lymphocyte; format: cell-based; settings: 100 μM
HDAC1 = HDAC1 (Homo sapiens, UniProt Q13547); test: HDAC isozyme panel at BPS Bioscience, HDAC1; format: biochemical; settings: read-out: % inhibition of HDAC1
HDAC6 = molecular target: T1, HDAC6 (Homo sapiens, UniProt Q9UBN7); test: HDAC isozyme panel at BPS Bioscience, HDAC6; format: biochemical; settings: read-out: % inhibition of HDAC6
T1 sequence (Q9UBN7 1-1215): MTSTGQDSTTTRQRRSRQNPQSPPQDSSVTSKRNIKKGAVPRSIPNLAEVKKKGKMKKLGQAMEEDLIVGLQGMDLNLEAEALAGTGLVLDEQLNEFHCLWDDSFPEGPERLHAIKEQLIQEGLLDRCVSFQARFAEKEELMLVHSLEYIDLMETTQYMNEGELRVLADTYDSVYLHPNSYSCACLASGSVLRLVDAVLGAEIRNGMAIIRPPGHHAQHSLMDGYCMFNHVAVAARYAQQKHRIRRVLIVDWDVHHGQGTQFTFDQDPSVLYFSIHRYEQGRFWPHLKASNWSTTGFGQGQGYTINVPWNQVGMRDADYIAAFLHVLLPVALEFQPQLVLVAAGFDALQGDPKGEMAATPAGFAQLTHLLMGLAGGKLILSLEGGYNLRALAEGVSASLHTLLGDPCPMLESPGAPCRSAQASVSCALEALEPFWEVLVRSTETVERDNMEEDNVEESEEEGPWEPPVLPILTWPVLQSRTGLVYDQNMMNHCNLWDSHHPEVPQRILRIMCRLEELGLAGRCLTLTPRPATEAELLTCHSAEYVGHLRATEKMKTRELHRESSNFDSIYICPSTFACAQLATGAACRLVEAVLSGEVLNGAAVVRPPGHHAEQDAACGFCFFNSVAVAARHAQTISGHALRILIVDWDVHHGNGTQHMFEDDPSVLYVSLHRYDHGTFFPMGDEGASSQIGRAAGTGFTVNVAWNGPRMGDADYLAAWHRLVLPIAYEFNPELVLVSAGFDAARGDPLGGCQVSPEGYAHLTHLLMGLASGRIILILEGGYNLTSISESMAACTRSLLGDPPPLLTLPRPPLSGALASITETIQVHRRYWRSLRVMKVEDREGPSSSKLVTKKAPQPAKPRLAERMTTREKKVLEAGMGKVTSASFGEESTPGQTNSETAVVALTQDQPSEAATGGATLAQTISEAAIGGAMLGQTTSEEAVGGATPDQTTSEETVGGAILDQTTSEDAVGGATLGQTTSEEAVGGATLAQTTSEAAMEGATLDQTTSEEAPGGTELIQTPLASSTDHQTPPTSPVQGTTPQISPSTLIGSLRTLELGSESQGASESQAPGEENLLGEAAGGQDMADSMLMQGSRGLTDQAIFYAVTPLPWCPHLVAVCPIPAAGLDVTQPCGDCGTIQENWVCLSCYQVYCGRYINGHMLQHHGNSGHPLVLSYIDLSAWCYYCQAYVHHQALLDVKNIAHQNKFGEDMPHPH

HDAC10 = molecular target: T2, HDAC10 (Homo sapiens, UniProt Q969S8); test: HDAC isozyme panel at BPS Bioscience, HDAC10; format: biochemical; settings: read-out: % inhibition of HDAC10
T2 sequence (Q969S8 1-669): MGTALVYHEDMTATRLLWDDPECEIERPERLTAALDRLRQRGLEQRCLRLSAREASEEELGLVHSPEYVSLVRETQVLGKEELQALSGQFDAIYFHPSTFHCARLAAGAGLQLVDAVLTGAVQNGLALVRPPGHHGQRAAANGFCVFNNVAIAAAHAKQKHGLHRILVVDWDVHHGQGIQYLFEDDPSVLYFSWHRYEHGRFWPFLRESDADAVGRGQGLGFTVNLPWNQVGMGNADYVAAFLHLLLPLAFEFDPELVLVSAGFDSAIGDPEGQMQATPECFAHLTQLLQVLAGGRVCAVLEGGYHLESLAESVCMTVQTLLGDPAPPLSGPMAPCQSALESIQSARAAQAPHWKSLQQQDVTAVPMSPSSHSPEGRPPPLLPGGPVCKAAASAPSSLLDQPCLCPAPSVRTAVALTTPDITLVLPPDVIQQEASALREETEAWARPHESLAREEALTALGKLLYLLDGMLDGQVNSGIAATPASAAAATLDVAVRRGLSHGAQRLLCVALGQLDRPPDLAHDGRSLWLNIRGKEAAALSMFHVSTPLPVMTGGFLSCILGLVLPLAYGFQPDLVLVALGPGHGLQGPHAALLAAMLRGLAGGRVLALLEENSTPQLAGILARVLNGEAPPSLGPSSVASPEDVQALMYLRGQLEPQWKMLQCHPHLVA

HDAC3 = HDAC3 (Homo sapiens, UniProt O15379); test: HDAC isozyme panel at BPS Bioscience, HDAC3; format: biochemical; settings: read-out: % inhibition of HDAC3
Chain of HDAC3 (O15379 whole entry): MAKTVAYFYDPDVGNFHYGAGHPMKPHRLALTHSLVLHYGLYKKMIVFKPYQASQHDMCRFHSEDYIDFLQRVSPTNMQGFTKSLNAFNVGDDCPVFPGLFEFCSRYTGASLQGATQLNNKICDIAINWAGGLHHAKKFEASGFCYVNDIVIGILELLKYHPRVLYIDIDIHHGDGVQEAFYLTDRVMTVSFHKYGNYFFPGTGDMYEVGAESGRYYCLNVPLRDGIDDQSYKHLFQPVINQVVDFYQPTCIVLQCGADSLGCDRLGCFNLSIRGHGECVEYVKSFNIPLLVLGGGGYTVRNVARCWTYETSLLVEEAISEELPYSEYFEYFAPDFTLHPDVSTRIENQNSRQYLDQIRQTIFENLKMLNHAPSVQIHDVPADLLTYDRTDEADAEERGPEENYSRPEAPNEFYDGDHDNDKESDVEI
Chain of HDAC3 (Q9Y618 395-489 partner limits assumed): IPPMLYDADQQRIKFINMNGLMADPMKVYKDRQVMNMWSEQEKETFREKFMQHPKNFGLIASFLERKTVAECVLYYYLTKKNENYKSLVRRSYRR

Chain of HDAC1 (Q13547 whole entry): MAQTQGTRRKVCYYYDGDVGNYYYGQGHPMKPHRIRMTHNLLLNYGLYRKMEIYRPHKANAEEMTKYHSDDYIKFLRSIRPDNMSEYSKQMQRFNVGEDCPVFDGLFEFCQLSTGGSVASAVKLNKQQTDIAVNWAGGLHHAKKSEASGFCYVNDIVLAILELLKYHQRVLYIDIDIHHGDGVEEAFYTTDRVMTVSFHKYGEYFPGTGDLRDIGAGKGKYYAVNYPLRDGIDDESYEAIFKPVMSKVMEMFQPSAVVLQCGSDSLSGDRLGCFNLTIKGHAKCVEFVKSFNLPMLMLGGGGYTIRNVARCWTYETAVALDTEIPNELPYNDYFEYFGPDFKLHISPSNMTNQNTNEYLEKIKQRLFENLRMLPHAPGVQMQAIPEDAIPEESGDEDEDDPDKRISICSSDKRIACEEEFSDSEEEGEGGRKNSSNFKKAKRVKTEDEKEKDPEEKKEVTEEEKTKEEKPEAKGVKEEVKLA

| SMILES | augmentation of CD3-stimulated anti-LAMP fluorescence increases (lytic granule exocytosis) [1] [%] | inhibition at 10 µM (HDAC1) [%] | inhibition at 10 µM (HDAC6) [%] | inhibition at 10 µM (HDAC10) [%] | inhibition at 10 µM (HDAC3) [%] |
| --- | --- | --- | --- | --- | --- |
| CCOC(=O)NCCCC(=O)Nc1ccc(CO[Si](C)(C)C(C)(C)C)cc1 [Compound 27, Ethyl (4-((4-(((tert-butyldimethylsilyl)oxy)methyl)phenyl)amino)-4-oxobutyl)carbamate] | 26 | – | – | – | – |
| CCOC(=O)NCCCC(=O)Nc1ccc(O[Si](C)(C)C(C)(C)C)cc1 [Compound 28, Ethyl (4-((4-((tert-butyldimethylsilyl)oxy)phenyl)amino)-4-oxobutyl)carbamate] | 71 | – | – | – | – |
| O=C(CCCCCCC(=O)Nc1ccccc1)NO [SAHA, suberoylanilide hydroxamic acid] | – | 100 ± 0.3 | 100 | 100 | 99 ± 0.7 |
